The source of these data is PMC5799093, “Proceedings of Réanimation 2018, the French Intensive Care Society International Congress” (Annals of Intensive Care, 2018).

Read-outs that look alike come from different tables or passages of the source.

Data set [1] is described as follows: Fatal carbon monoxide intoxication, forensic series (P-181). The settings on record: 29 fatal cases, toxicological analysis at autopsy.
The test system of data set [2] is Pseudomonas aeruginosa (PA). The experiment in a line: Antibiotic resistance of Pseudomonas aeruginosa before/after antibiotic stewardship (P-214). The data set is classed as cell-based.
Data set [3] concerns Pseudomonas aeruginosa. Kind of data set: Resistance of nosocomial infection isolates: Pseudomonas aeruginosa (P-222). The data set is classed as cell-based. Conditions: n = 14 isolates, 2016. An excerpt: (§1) Patients and methods: This was a retrospective study conducted within a 22-bed medical ICU of a Tunisian teaching hospital (301 beds) carried from January 1st to December 31, 2016. We recorded demographic patients’ characteristics which ICU’s stay was complicated with at least one NI. Then we described pathogens and microbiological specificities of NI.

For a further data set, the system named is P. aeruginosa. Kind of data set: Antibiotic resistance of P. aeruginosa (P-147). The data set is classed as cell-based.
Data set [4] relates to Pseudomonas aeruginosa. The experiment in a line: Disk diffusion susceptibility of P. aeruginosa isolated from burned patients (P-48). The settings on record: for strains resistant: 485 strains from burned patients 2012-2015, disk diffusion, FSM breakpoints. The data set is classed as cell-based. For orientation: In agar diffusion tests the substance spreads into inoculated agar from a disc or well.

The subject of a further data set is Acinetobacter Baumanii. The experiment in a line: Resistance of nosocomial infection isolates: Acinetobacter Baumanii (P-222). The data set is classed as cell-based. Conditions: n = 39 isolates, 2016.
From the text: as §1

Data set [5] can be described thus: Beta-lactam plasma concentrations in children with severe sepsis or septic shock (HPLC). Conditions: current standard dosing.
The subject of data set [6] is Acinetobacter baumannii. The data set is classed as cell-based. Conditions: blood culture isolates 2012–2016. As to the method: (§2) Patients and methods: From January 2012 to December 2016, a total of 2,182 non repetitive strains were isolated from blood cultures. Incubation of blood culture vials and the detection of bacterial growth were performed by the BACTEC system. All Isolated organisms were identified on the basis of standard microbiological techniques. Antibiotic susceptibility testing was carried out by the agar disk diffusion method, and susceptibility results were interpreted using clinical breakpoints according to CA-SFM 2013 and 2015 guidelines. Data were analyzed using the SIR-system. Minimum inhibitory concentrations of colistin, imipenem and vancomycin were determined using the Etest® method (bioMérieux).

The subject of the next data set is acintobacter baumanii. The experiment in a line: Resistance of VAP isolates: baumanii (P-224). The settings on record: 2014-2015. The data set is classed as cell-based. An excerpt: (§3) Patients and methods: Retrospective study spread over 2 years from January 2014 to December 2015 carried out in the resuscitation unit of the medical and surgical emergency department of CHUOran. Data utilization with Whonet software. The criteria of vap retained are those of CTINILS (May 2007).

For data set [7], the system named is carbapenemase-producing Enterobacteriaceae. The experiment in a line: Antibiotic susceptibility of Enterobacteriaceae with decreased susceptibility to carbapenems. The data set is classed as cell-based.
Data set [8] has as its system Pseudomonas. Kind of data set: Resistance of VAP isolates: pseudomonas (P-224). The settings on record: 2014-2015. The data set is classed as cell-based.
From the text: as §3

The test system of data set [9] is Acinetobacter baumannii. The settings on record: January 2010 - June 2014.
The test system of another data set is Escherichia-coli. Kind of data set: Resistance in nosocomial urinary tract infection: Escherichia-coli (P-219). Conditions: January 2010 - June 2014.
Data set [10] relates to Extended spectrum betalactamase producing Enterobacteriaceae. Kind of data set: Antibiotic resistance of ESBL producing Enterobacteriaceae (P-147). The data set is classed as cell-based. The settings on record: isolates 2015 and 2016.
Data set [11] concerns Pseudomonas. The settings on record: January 2010 - June 2014.
Data set [12] relates to Pseudomonas aeruginosa.
Data set [13] in a line: New-generation anticonvulsive drug poisoning in ICU with pharmacokinetics (P-146). The settings on record: membrane-stabilizing effects resulting in acute cardiac failure. The data set is classed as in vivo, human. An excerpt: Pharmacokinetics modeling and parameters were obtained using WinNonlin v.5.1 software.
For data set [14], the system named is Staphylococcus aureus. The data set is classed as cell-based. Conditions: blood culture isolates 2012–2016. The protocol:
as §2

Data set [15] has as its system Staphylococcus aureus. Kind of data set: Resistance in nosocomial urinary tract infection: Staphylococcus aureus (P-219). The settings on record: January 2010 - June 2014.
Data set [16] has as its system coagulase negative Staphylococcus. Kind of data set: Resistance of nosocomial infection isolates: coagulase negative Staphylococcus (P-222). The data set is classed as cell-based. The settings on record: n = 12 isolates, 2016.
From the text: as §1

Another data set has as its system Acinetobacter baumanni. Kind of data set: Antibiotic resistance of Acinetobacter baumanni (P-147). Conditions: imipenem resistant isolates. The data set is classed as cell-based.
Data set [17] has as its system microorganisms of post-operative pneumonia. Kind of data set: Susceptibility of microorganisms cultured in severe post-operative pneumonia (P-213). The data set is classed as cell-based. Conditions: 66 patients with significant culture. As to the method: Patients and methods: All patients with severe POP occurring within 30 days after lung resection between January 2013 and December 2015 were included. We collected data on clinical presentation, results of microbiological investigations, antibiotic regimen and outcomes. The quality of antibiotic use was assessed using indicators previously validated in the literature.

Data set [18] is described as follows: Piperacillin-tazobactam 16 g day continuous infusion, PK PD target attainment. Conditions: MIC 16 mg L^−1 for piperacillin, n = 60. The data set is classed as in vivo, critically ill patients.
The mark [19] stands for this setting: period 2011–2014 (P2), after antibiotic stewardship, p < 0.01.

On to `[C-]#[O+]` [carbon monoxide], for which the “mean HbCO level” value in data set [1] stood at 51.59%.
Take `CC(C)(O/N=C(\C(=O)N[C@@H]1C(=O)N2C(C(=O)[O-])=C(C[n+]3ccccc3)CS[C@H]12)c1csc(N)n1)C(=O)O` [ceftazidim]: the entries for the “antibiotic resistance of PA” value in data set [2] (period 2007–2010 (P1)) and in [2] (setting [19]) were 42% and 11%, respectively. The resistance with Pseudomonas aeruginosa [3] worked out at 33.3%; in the data set on P. aeruginosa (isolates 2015 and 2016), 10%. Also, in the data set with Pseudomonas aeruginosa [4], the strains resistant is 21%.
In the data set on Acinetobacter Baumanii, `C[C@@H](O)[C@H]1C(=O)N2C(C(=O)O)=C(SCCN=CN)C[C@H]12` [imipenem] showed a resistance of 100%. Further, the “patients with insufficient plasma concentration” value in [5] is listed as 0%. Besides, the figures for the resistance rate with Acinetobacter baumannii [6], in the data set with Klebsiella pneumoniae and with Pseudomonas aeruginosa [12] were 94%, 15% and 72%, respectively. The resistant in the data set on acintobacter baumanii was 55%; in the data set with Pseudomonas [8] it was 18.4%; in the data set with Acinetobacter baumannii [9] it was 87%; in the data set with Escherichia-coli, 8%; with Pseudomonas [11], 64%. Also, the “strains with MIC > 8 mg l” value in [7] (39 selected bacteria) worked out at 30%. Further, the entries for the “antibiotic resistance of PA” value in [2] (period 2007–2010 (P1)) and in data set [2] (setting [19]) were 38% and 18%, respectively. The rate of resistance in [10] was found to be 2.17%. This molecule registered a strains resistant in the data set on Pseudomonas aeruginosa [4] of 56%.
In the case of `COC[C@@H](NC(C)=O)C(=O)NCc1ccccc1` [lancosamide, lacosamide], the outcome in [13] is recorded as “died”.
The molecule `COc1cccc(OC)c1C(=O)N[C@@H]1C(=O)N2[C@@H]1SC(C)(C)[C@@H]2C(=O)O` [methicillin] showed a resistance rate with Staphylococcus aureus [14] of 70%. The resistant in the data set with Staphylococcus aureus [15] came to 25%; in [16], 75%.
As for colistin, the sensitivity result (in the data set on Acinetobacter baumanni; in [10]; with P. aeruginosa (Ceftazidim resistant isolates)) was “all bacterial stocks were sensitive” throughout. The susceptibility in [7] (colistin excepting with Proteus) was 98%. In the data set on Pseudomonas aeruginosa [4] (485 strains from burned patients, disk diffusion), this molecule returned a strains susceptible of 100%.
As to piperacillin-tazobactam, the “patients with insufficient plasma concentration” value in data set [5] came out at 77%. Besides, the “patients whose microorganisms were sensitive” value in [17] amounted to 86%. For the same molecule, the resistant rate in data set [7] (CA-SFM 2015) was 87%. Moreover, the “rate of empirical target non-attainment” value in data set [18] is recorded as 17%.
